From patent US20180028601A1, “METHODS AND COMPOSITIONS FOR TREATING CANCER” (Yissum Research Development Company of The Hebrew …, priority 2016, published 2018) come the findings set out here.

Assay [1] deals with human colon adenocarcinoma sections. Kind of assay: Binding of fluorescently labeled F. nucleatum to human colon tissue sections / TMA. Conditions: 300 mM GalNAc. As for the experimental part:
Tissue Microarray Analysis—Colon cancer tissue array CO2601 (US Biomax) and array CO809a (US Biomax) were used in these studies. Details about the cases for each core on the array are available on the US Biomax Web site.
Immunofluorescence and Section Preparation—Fixed tissue sections were stained with H&E or processed for immunofluorescence microscopy. Sections were blocked and incubated with fluorescent PNA or fluorescent bacteria and imaging analysis are as described in Abed et al. 2016. ibid, Supplemental Experimental Procedures. GalNAc removal was performed by incubating sections with O-glycanase.; see Supplemental Experimental Procedures for experimental details.

The subject of the next assay is erythrocytes. Kind of assay: Hemagglutination assay. It counts as cell-based. Conditions: bacteria preincubated with 25 mM GalNAc. As for the experimental part:
Hemagglutination Assays—Hemagglutination assays were performed as previously described (Coppenhagen-Glazer et al., 2015, ibid). For inhibition assays, washed bacteria were preincubated with 25 mM GalNAc (Sigma-Aldrich) for 30 min prior to incubation with erythrocytes.

Assay [2] relates to high and intermediate Gal-GalNAc-expressing CRC cell lines (HCT116, CT26, RKO). Kind of assay: Flow cytometry attachment and GalNAc competition assays, high and intermediate Gal-GalNAc-expressing lines. It counts as cell-based, human and mouse. Conditions: p=0.04167. The procedure: Flow Cytometry and Competition Assays—FITC-labeled F. nucleatum were incubated with cells at a MOI of 10 for 30 min at room temperature. FITC-labeled PNA lectin (Sigma-Aldrich) was incubated at a final concentration of 140 nM per 2.5×10^5 cells. For competition experiments, bacteria or PNA was incubated with GalNAc (concentration range 0, 50, 100, and 300 mM) for 30 min prior to incubation with cells. Flow cytometry methods and analysis are as described in Abed et al. 2016. ibid, Supplemental Experimental Procedures.

On to `CC(=O)N[C@H]1C(O)O[C@H](CO)[C@H](O)[C@@H]1O` (stereo partly shown) [GalNAc], for which the “inhibition of binding of F. nucleatum ATCC 23726 to human CRC tissue sections” value in assay [1] is recorded as “inhibits binding”. The “inhibition of CTI-2 hemagglutination” value in the assay with erythrocytes is reported as “inhibited”. Besides, the “inhibition of F. nucleatum ATCC 23726 binding to cells” value in assay [2] (GalNAc 0, 50, 100, 300 mM) is on record as “inhibited by GalNAc in a statistically significant, dose-dependent manner”. For the same compound, in assay [2] (soluble GalNAc 0-300 mM), the “inhibition of CTI-2 binding to cells” value is “inhibited by the addition of soluble GalNAc in a dose-dependent manner”.
